Test results published in US8129417B2, “Substituted octahydrocyclopenta[C]pyrrol-4-amines as calcium channel blockers” (Abbott Laboratories, priority 2008, dated 2012).

What was measured:
[1] = target: human Cav2.2 (Homo sapiens, UniProt Q00975); assay: Assessment of calcium channel activity using FLIPR (Ca2+ influx in IMR32 cells); format: cell-based; conditions: 60 minute pre-incubation with compound, 2 μM nifedipine, depolarized with 80 mM KCl
In short: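 IMR32 neuroblastoma cells seeded at 1-1.2×10^5 cells/well and grown 48 h at 37 °C before FLIPR Ca2+ influx read. Percent inhibition at each concentration vs no-inhibitor activity; IC50 by non-linear sigmoidal dose-response fit.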

[2] = test system: Sprague Dawley rats; assay: Capsaicin induced secondary mechanical hyperalgesia model; format: in vivo; conditions: po, 1 h, read-out: % inhibition @ 30 mg/kg p.o., 60 minutes before testing, secondary mechanical hyperalgesia 180 minutes after intraplantar capsaicin, rat
Procedure: (ii) In Vivo Data—Capsaicin Induced Secondary Mechanical Hyperalgesia Model:
Sprague Dawley rats were briefly restrained, and capsaicin was administered at 10 μg in 10 μL of vehicle by intraplantar injection into the center of the right hind paw. Secondary mechanical hyperalgesia (SMH) was measured at the heel away from the site of injection 180 minutes following capsaicin exposure. Compounds and gabapentin (positive control), were administered p.o. 60 minutes before testing (2 hours after capsaicin) or i.p. 30 minutes before testing (2.5 hours after capsaicin). SMH was measured using calibrated von Frey filaments (Stoelting, Woodale, Ill.). Following the 1 hour habituation in the testing room, rats were moved to individual plexiglass chambers that sit on top of a wire mesh to allow for access for stimulation of the plantar surface of the hind paws. Rats were allowed to acclimate to the new chambers for 15 minutes before the onset of testing. The paw withdrawal threshold was determined by increasing and decreasing stimulus intensity (force: g) and calculated using Dixon's up-down method (Chaplan, S. R.; Bach, F. W.; Pogrel, J. W.; Chung, J. M.; Yaksh, T. L.; Quantitative assessment of tactile allodynia in the rat paw. J. Neuroscience Methods 1994, 53(1), 55-63.). The filaments (maximum force of 15.0 g) were held in place for 8 seconds or until there was a withdrawal response from the mechanical stimulation.

Chain of human Cav2.2 (Q00975 whole entry): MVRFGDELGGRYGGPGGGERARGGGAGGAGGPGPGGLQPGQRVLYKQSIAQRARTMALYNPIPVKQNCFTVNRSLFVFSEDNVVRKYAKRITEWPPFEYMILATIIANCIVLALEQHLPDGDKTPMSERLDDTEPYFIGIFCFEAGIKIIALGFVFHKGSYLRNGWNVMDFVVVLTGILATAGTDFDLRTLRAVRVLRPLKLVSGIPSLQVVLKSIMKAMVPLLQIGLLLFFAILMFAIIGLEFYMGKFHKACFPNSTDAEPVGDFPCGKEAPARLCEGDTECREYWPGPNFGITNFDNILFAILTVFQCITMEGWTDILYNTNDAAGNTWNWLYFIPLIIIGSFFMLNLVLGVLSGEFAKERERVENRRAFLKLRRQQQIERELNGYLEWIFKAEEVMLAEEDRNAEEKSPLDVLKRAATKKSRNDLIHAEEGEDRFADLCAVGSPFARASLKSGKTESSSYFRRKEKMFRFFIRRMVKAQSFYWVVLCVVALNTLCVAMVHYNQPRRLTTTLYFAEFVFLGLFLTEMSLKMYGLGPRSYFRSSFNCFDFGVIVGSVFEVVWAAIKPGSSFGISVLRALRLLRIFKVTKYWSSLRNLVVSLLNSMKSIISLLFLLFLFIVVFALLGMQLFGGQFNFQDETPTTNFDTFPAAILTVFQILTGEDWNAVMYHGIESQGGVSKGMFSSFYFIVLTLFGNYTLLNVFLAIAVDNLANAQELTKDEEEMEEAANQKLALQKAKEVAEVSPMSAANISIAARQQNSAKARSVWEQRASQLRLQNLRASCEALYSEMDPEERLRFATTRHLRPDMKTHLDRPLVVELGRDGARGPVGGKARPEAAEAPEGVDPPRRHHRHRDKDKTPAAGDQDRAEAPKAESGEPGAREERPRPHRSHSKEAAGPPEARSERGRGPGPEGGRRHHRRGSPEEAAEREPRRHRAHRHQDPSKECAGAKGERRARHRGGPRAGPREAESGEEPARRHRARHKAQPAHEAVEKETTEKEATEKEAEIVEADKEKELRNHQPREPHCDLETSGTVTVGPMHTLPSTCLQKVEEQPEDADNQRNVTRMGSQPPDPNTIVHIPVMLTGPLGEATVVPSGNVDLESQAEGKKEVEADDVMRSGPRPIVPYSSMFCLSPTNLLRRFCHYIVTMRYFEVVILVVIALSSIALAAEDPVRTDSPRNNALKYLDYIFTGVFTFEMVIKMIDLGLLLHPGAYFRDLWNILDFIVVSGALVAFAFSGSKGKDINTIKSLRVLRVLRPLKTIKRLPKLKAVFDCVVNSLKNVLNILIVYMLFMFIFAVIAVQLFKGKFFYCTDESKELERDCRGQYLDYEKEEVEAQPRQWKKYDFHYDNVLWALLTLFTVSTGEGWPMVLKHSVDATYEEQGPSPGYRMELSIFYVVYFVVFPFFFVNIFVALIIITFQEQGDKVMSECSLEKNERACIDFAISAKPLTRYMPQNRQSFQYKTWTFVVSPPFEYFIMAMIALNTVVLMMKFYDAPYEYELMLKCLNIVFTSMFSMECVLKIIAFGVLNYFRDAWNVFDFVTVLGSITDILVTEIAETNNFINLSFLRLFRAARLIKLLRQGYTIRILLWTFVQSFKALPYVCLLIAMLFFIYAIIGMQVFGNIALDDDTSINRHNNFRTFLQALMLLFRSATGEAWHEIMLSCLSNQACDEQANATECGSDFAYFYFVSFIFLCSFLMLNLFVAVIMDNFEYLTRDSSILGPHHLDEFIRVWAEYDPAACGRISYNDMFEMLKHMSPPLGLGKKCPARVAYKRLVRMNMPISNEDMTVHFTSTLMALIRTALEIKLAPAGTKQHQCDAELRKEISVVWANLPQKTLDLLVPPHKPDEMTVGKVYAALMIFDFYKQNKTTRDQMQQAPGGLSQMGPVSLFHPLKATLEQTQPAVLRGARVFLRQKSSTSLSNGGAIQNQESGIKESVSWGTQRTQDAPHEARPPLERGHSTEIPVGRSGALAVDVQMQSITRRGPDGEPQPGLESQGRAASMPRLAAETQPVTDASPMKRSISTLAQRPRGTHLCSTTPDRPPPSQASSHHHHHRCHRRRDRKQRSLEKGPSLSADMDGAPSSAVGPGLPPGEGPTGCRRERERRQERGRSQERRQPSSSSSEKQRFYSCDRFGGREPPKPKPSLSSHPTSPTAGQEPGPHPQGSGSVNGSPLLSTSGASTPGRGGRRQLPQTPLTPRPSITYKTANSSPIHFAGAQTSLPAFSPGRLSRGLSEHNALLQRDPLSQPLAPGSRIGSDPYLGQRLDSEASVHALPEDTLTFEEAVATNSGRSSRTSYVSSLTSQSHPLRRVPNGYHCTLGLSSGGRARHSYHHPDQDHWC
Chain of human Cav2.2 (P54289 25-946 partner limits assumed): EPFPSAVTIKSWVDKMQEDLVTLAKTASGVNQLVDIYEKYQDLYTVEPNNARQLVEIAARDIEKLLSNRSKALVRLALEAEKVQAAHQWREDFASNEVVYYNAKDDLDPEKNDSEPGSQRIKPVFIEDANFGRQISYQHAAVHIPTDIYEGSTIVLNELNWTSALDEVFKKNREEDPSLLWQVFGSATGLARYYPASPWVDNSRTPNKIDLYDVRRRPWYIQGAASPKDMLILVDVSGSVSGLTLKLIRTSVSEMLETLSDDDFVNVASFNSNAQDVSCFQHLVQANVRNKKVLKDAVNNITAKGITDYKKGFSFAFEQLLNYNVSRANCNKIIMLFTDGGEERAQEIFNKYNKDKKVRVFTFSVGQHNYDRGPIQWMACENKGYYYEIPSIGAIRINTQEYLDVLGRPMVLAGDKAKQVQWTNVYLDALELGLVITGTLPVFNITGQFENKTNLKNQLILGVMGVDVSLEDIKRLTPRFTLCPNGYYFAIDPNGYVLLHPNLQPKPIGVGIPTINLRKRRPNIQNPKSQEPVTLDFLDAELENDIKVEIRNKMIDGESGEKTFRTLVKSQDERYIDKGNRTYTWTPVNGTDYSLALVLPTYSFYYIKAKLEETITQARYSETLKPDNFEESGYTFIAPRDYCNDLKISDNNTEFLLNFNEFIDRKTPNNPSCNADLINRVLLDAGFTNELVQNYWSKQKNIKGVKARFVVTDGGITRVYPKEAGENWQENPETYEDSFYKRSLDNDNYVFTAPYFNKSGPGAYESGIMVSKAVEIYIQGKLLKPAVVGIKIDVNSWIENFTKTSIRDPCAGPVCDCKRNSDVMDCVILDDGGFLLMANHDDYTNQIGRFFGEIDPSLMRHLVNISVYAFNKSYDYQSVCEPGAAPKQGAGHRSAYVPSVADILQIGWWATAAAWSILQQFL
Chain of human Cav2.2 (P54289 947-1103 partner limits assumed): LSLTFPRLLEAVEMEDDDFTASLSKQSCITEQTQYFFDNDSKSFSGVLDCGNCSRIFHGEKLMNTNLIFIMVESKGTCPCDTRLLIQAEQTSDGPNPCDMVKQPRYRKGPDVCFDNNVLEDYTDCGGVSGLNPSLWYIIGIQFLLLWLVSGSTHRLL
Chain of human Cav2.2 (P54284 whole entry partner): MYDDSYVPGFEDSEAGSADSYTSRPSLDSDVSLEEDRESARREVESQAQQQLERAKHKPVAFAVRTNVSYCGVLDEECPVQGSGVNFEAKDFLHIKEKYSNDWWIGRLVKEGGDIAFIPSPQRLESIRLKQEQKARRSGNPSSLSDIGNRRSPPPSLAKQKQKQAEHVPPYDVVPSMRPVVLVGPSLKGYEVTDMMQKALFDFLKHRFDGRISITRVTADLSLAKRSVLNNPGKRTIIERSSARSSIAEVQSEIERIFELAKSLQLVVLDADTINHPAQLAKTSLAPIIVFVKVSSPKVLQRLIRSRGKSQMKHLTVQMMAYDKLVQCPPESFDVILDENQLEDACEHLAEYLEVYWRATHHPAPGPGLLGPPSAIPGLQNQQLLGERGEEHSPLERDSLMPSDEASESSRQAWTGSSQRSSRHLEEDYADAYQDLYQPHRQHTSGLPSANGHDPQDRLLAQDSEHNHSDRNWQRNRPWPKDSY

| IC50 [1] [nM] | SMILES | inhibition in vivo at 30 mg/kg [2] [%] |
| --- | --- | --- |
| 500 | O=C(N[C@@H]1CC[C@H]2CN(Cc3cccc(C(F)(F)F)c3)C[C@H]21)C(C1CCCCC1)C1CCCCC1 [Example 75, 2,2-dicyclohexyl-N-{(3aS,4R,6aR)-2-[3-(trifluoromethyl)benzyl]octahydrocyclopenta[c]pyrrol-4-yl}acetamide] | 85 |
| 800 | O=C(N[C@H]1CC[C@@H]2CN(Cc3cccc(C(F)(F)F)c3)C[C@@H]21)C(C1CCCCC1)C1CCCCC1 [Example 156, 2,2-dicyclohexyl-N-{(3aR,4S,6aS)-2-[3-(trifluoromethyl)benzyl]octahydrocyclopenta[c]pyrrol-4-yl}acetamide] | 67 |
| 33300 | CN[C@@H](CC(C)C)C(=O)N[C@@H]1CC[C@H]2CN(Cc3ccccc3)C[C@H]21 [Example 165, N^1-[(3aS,4R,6aR)-2-benzyloctahydrocyclopenta[c]pyrrol-4-yl]-N^2-methyl-L-leucinamide] | 92 |
| > 9000 | CC(C)C[C@@H](C(=O)N[C@@H]1CC[C@H]2CN(Cc3ccccc3)C[C@H]21)N1CCCS1(=O)=O [Example 220, (2S)—N-[(3aS,4R,6aR)-2-benzyloctahydrocyclopenta[c]pyrrol-4-yl]-2-(1,1-dioxidoisothiazolidin-2-yl)-4-methylpentanamide] | 76 |
| 5040 | CCC[C@H](NC(=O)OC(C)C)C(=O)N[C@H]1CC[C@@H]2CN(Cc3ccc(C(F)(F)F)cc3)C[C@@H]21 [Example 280, isopropyl(S)-1-oxo-1-((3aR,4S,6aS)-2-(4-(trifluoromethyl)benzyl)octahydrocyclopenta[c]pyrrol-4-ylamino)pentan-2-ylcarbamate] | 38 |
| 2970 | CN[C@@H](CC(C)(C)C)C(=O)N[C@H]1CC[C@@H]2CN(S(=O)(=O)c3ccc(C(F)(F)F)cc3)C[C@@H]21 [Example 415, N^2,4-dimethyl-N^1-((3aR,4S,6aS)-2-{[4-(trifluoromethyl)phenyl]sulfonyl}octahydrocyclopenta[c]pyrrol-4-yl)-L-leucinamide] | 52 |
| 7430 | CC(C)N[C@@H](CC(C)(C)C)C(=O)N[C@H]1CC[C@@H]2CN(C(=O)[C@H](CC(C)(C)C)NC(C)C)C[C@@H]21 [Example 488, N^2-isopropyl-N^1-[(3aR,4S,6aS)-2-(N-isopropyl-4-methyl-L-leucyl)octahydrocyclopenta[c]pyrrol-4-yl]-4-methyl-L-leucinamide] | 55 |
| 9760 | CC(C)N[C@@H](CC(C)(C)C)C(=O)N[C@H]1CC[C@@H]2CN(C(=O)[C@H](Cc3ccccc3)NC(C)C)C[C@@H]21 [Example 489, N^2-isopropyl-N^1-[(3aR,4S,6aS)-2-(N-isopropyl-L-phenylalanyl)octahydrocyclopenta[c]pyrrol-4-yl]-4-methyl-L-leucinamide] | 47 |
| 1450 | O=C(N[C@H]1CC[C@@H]2CN(c3cccc(C(F)(F)F)n3)C[C@@H]21)c1ccc(F)cc1 [Example 560, 4-fluoro-N-{(3aR,4S,6aS)-2-[6-(trifluoromethyl)pyridin-2-yl]octahydrocyclopenta[c]pyrrol-4-yl}benzamide] | 42 |

Second part, the compound before the results:

| SMILES | IC50 [1] [nM] | inhibition in vivo at 30 mg/kg [2] [%] |
| --- | --- | --- |
| O=C(N[C@H]1CC[C@H]2CN(Cc3cccc(C(F)(F)F)c3)C[C@H]21)C(C1CCCCC1)C1CCCCC1 [Example 54, 2,2-dicyclohexyl-N-{(3aS,4S,6aR)-2-[3-(trifluoromethyl)benzyl]octahydrocyclopenta[c]pyrrol-4-yl}acetamide] | 500 | 38 |
| O=C(N[C@@H]1CC[C@@H]2CN(Cc3cccc(C(F)(F)F)c3)C[C@@H]21)C(C1CCCCC1)C1CCCCC1 [Example 157, 2,2-dicyclohexyl-N-{(3aR,4R,6aS)-2-[3-(trifluoromethyl)benzyl]octahydrocyclopenta[c]pyrrol-4-yl}acetamide] | 2100 | 57 |
| CC(C)C[C@H](NS(C)(=O)=O)C(=O)N[C@@H]1CC[C@H]2CN(Cc3cccc(C(F)(F)F)c3)C[C@H]21 [Example 170, N^2-(methylsulfonyl)-N^1-{(3aS,4R,6aR)-2-[3-(trifluoromethyl)benzyl]octahydrocyclopenta[c]pyrrol-4-yl}-L-leucinamide] | – | 57 |
| CC(C)C[C@H](NS(=O)(=O)C1CC1)C(=O)N[C@@H]1CC[C@H]2CN(Cc3cccc(C(F)(F)F)c3)C[C@H]21 [Example 172, N^2-(cyclopropylsulfonyl)-N^1-{(3aS,4R,6aR)-2-[3-(trifluoromethyl)benzyl]octahydrocyclopenta[c]pyrrol-4-yl}-L-leucinamide] | – | 85 |
| CN[C@@H](CC(C)C)C(=O)N[C@@H]1CC[C@H]2CN(S(=O)(=O)c3ccc(C(F)(F)F)cc3)C[C@H]21 [Example 183, N^2-methyl-N^1-((3aS,4R,6aR)-2-{[4-(trifluoromethyl)phenyl]sulfonyl}octahydrocyclopenta[c]pyrrol-4-yl)-L-leucinamide] | – | 78 |
| CCC[C@H](NC)C(=O)N[C@H]1CC[C@@H]2CN(S(=O)(=O)c3ccc(C(F)(F)F)cc3)C[C@@H]21 [Example 405, N^2-methyl-N^1-((3aR,4S,6aS)-2-{[4-(trifluoromethyl)phenyl]sulfonyl}octahydrocyclopenta[c]pyrrol-4-yl)-L-norvalinamide] | – | 32 |
| CC(C)(C)C[C@H](NCC1CC1)C(=O)N[C@H]1CC[C@@H]2CN(c3ccc(C(F)(F)F)cn3)C[C@@H]21 [Example 478, N^2-(cyclopropylmethyl)-4-methyl-N^1-{(3aR,4S,6aS)-2-[5-(trifluoromethyl)pyridin-2-yl]octahydrocyclopenta[c]pyrrol-4-yl}-L-leucinamide] | 750 | 57 |
| CC(C)(C)C[C@H](NCC1CC1)C(=O)N[C@H]1CC[C@@H]2CN(c3cccc(C(F)(F)F)n3)C[C@@H]21 [Example 479, N^2-(cyclopropylmethyl)-4-methyl-N^1-{(3aR,4S,6aS)-2-[6-(trifluoromethyl)pyridin-2-yl]octahydrocyclopenta[c]pyrrol-4-yl}-L-leucinamide] | – | 40 |
